Measurements published in ChEMBL document CHEMBL1147275, “An Antibiotic from Trichoderma Koningii Active Against Soilborne Plant Pathogens” (1989).

Key:
Type in all cases: functional
Phytophthora cinnamomi [1] = test: Antimicrobial activity of agar culture isolated compound against Phytophthora cinnamomi assessed as colony area after 2 days
Gaeumannomyces tritici [2] = test: Antimicrobial activity of broth culture isolated compound against Gaeumannomyces graminis var. tritici assessed as colony area after 4 days
Rhizoctonia solani [3] = test: Antimicrobial activity of agar culture isolated compound against Rhizoctonia solani assessed as colony area after 3 days
Gaeumannomyces tritici [4] = test: Antimicrobial activity of agar culture isolated compound against Gaeumannomyces graminis var. tritici assessed as colony area after 2 days
Gaeumannomyces tritici [5] = test: Antimicrobial activity of agar culture isolated compound against Gaeumannomyces graminis var. tritici assessed as colony area after 1 day
Gaeumannomyces tritici [6] = test: Antimicrobial activity of agar culture isolated compound against Gaeumannomyces graminis var. tritici assessed as colony area after 3 days
Gaeumannomyces tritici [7] = test: Antimicrobial activity of broth culture isolated compound against Gaeumannomyces graminis var. tritici assessed as colony area after 2 days
[8] = system: Globisporangium middletonii; test: Antimicrobial activity of agar culture isolated compound against Pythium middletonii assessed as colony area after 2 days
Gaeumannomyces tritici [9] = test: Antimicrobial activity of broth culture isolated compound against Gaeumannomyces graminis var. tritici assessed as colony area after 3 days
[10] = system: Globisporangium middletonii; test: Antimicrobial activity of agar culture isolated compound against Pythium middletonii assessed as colony area after 3 days
Phytophthora cinnamomi [11] = test: Antimicrobial activity of agar culture isolated compound against Phytophthora cinnamomi assessed as colony area after 3 days
Fusarium oxysporum [12] = test: Antimicrobial activity of agar culture isolated compound against Fusarium oxysporum assessed as colony area after 3 days
Rhizoctonia solani [13] = test: Antimicrobial activity of agar culture isolated compound against Rhizoctonia solani assessed as colony area after 2 days
Gaeumannomyces tritici [14] = test: Antimicrobial activity of broth culture isolated compound against Gaeumannomyces graminis var. tritici assessed as colony area after 5 days
Bipolaris sorokiniana [15] = test: Antimicrobial activity of agar culture isolated compound against Bipolaris sorokiniana assessed as colony area after 3 days
Fusarium oxysporum [16] = test: Antimicrobial activity of agar culture isolated compound against Fusarium oxysporum assessed as colony area after 2 days
Bipolaris sorokiniana [17] = test: Antimicrobial activity of agar culture isolated compound against Bipolaris sorokiniana assessed as colony area after 1 day
Bipolaris sorokiniana [18] = test: Antimicrobial activity of agar culture isolated compound against Bipolaris sorokiniana assessed as colony area after 2 days
Phytophthora cinnamomi [19] = test: Antimicrobial activity of agar culture isolated compound against Phytophthora cinnamomi assessed as colony area after 1 day
Fusarium oxysporum [20] = test: Antimicrobial activity of agar culture isolated compound against Fusarium oxysporum assessed as colony area after 1 day
[21] = system: Globisporangium middletonii; test: Antimicrobial activity of agar culture isolated compound against Pythium middletonii assessed as colony area after 1 day
Gaeumannomyces tritici [22] = test: Antimicrobial activity of broth culture isolated compound against Gaeumannomyces graminis var. tritici assessed as colony area after 6 days
Rhizoctonia solani [23] = test: Antimicrobial activity of agar culture isolated compound against Rhizoctonia solani assessed as colony area after 1 day

CCCCCC[C@H](O)[C@@H]1C[C@@H](O)C2=C(O1)[C@H](O)CCC2=O gave an Activity (Phytophthora cinnamomi [1]) of 38 mm2, an Activity (Gaeumannomyces tritici [2]) of 63 mm2 and an Activity (Rhizoctonia solani [3]) of 46 mm2. The Activity (Gaeumannomyces tritici [4]) was 42 mm2, the Activity (Gaeumannomyces tritici [5]) was 40 mm2 and the Activity (Gaeumannomyces tritici [6]) was 44 mm2. For the same compound, the Activity (Gaeumannomyces tritici [7]) was 32 mm2, the Activity [8] was 184 mm2 and the Activity (Gaeumannomyces tritici [9]) was 33 mm2. The Activity [10] was 232 mm2, the Activity (Phytophthora cinnamomi [11]) was 92 mm2 and the Activity (Fusarium oxysporum [12]) was 170 mm2. It also gave an Activity (Rhizoctonia solani [13]) of 42 mm2, an Activity (Gaeumannomyces tritici [14]) of 198 mm2 and an Activity (Bipolaris sorokiniana [15]) of 45 mm2. It also gave an Activity (Fusarium oxysporum [16]) of 103 mm2, an Activity (Bipolaris sorokiniana [17]) of 44 mm2 and an Activity (Bipolaris sorokiniana [18]) of 46 mm2. For the same compound, the Activity (Phytophthora cinnamomi [19]) was 37 mm2, the Activity (Fusarium oxysporum [20]) was 46 mm2 and the Activity [21] was 38 mm2. The Activity (Gaeumannomyces tritici [22]) was 549 mm2 and the Activity (Rhizoctonia solani [23]) was 38 mm2.
